Columns and labels:
Assay type in all cases: biochemical
Lck = target: T1, Lck (Homo sapiens, UniProt P06239); experiment: Kinase inhibition assay (33P transfer), Lck; settings: Table 3, class symbols; read-out: Lck-1
T1 construct: Kinases are expressed as either kinase domains or full length constructs; made in house
Outline: (§1)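 Liquid scintillation counting of 33P on plate-bound synthetic substrates gives kinase activity. Plates are washed in 0.5% phosphoric acid first; kinases are tagged recombinant proteins from E. coli or baculovirus-infected High Five cells.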

Zap-70 = target: T2, Zap-70 (Homo sapiens, UniProt P43403); experiment: Kinase inhibition assay (33P transfer), Zap-70; settings: Table 3, class symbols; read-out: Zap-1
T2 construct: Kinases are expressed as either kinase domains or full length constructs; made in house
T2 sequence (P43403 1-619): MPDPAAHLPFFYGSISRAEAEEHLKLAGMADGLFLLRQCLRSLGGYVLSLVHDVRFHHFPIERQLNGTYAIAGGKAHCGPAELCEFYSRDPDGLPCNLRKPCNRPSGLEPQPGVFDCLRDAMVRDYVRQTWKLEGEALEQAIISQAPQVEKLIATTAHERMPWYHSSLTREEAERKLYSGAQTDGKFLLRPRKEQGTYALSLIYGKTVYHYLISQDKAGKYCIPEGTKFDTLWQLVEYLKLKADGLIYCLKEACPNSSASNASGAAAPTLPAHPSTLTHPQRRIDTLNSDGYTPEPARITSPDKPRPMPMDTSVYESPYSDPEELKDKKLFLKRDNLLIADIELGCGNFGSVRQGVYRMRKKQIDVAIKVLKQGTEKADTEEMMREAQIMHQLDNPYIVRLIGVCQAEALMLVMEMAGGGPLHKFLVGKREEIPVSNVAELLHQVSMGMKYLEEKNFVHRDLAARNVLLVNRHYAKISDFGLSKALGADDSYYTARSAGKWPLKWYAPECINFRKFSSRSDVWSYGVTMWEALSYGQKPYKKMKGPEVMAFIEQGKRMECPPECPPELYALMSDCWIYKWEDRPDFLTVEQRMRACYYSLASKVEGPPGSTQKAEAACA
Outline: as §1

Itk = target: T3, Itk (Homo sapiens, UniProt Q08881); experiment: Kinase inhibition assay (33P transfer), Itk; settings: Table 3, class symbols; read-out: Itk-1
T3 construct: Kinases are expressed as either kinase domains or full length constructs; made in house
T3 sequence (Q08881 1-620): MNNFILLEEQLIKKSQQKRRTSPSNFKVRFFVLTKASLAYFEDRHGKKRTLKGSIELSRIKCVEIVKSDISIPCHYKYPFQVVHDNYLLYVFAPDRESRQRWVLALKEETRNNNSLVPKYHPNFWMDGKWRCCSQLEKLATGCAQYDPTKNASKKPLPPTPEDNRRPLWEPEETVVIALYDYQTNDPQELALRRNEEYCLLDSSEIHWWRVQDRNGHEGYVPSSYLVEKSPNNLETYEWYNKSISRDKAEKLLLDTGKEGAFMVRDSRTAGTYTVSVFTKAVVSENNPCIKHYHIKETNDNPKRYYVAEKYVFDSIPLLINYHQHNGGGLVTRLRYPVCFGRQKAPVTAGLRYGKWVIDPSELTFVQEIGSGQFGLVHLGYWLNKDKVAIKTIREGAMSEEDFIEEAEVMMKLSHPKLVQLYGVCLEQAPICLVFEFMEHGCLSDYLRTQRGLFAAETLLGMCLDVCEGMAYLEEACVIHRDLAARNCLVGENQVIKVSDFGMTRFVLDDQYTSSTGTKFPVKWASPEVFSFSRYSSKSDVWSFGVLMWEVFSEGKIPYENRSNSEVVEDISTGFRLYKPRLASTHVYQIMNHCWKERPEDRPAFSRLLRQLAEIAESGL
Outline: (§2)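 Steps: coat wells with poly(Glu,Tyr) 4:1 or poly(Arg,Ser) 3:1; add purified kinase, [33P]ATP and inhibitor; incubate; wash with 0.5% phosphoric acid; add liquid scintillant; count. IC50 corresponds to half-maximal reduction of bound 33P.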

EGFR = target: T4, EGFR (Homo sapiens, UniProt P00533); experiment: Kinase inhibition assay (33P transfer), EGFR; settings: Table 2, class symbols A-E; read-out: EGFR-1
T4 construct: Kinases are expressed as either kinase domains or full length constructs; made in house
Outline: as §2

ErbB2 = target: T5, ErbB2 (Homo sapiens, UniProt P04626); experiment: Kinase inhibition assay (33P transfer), ErbB2; settings: read-out: ErbB2-2
T5 construct: Kinases are expressed as either kinase domains or full length constructs; made in house
Outline: as §2

Kdr = target: T6, Kdr (Homo sapiens, UniProt P35968); experiment: Kinase inhibition assay (33P transfer), Kdr; settings: Table 3, class symbols; read-out: KDR-1
T6 construct: Kinases are expressed as either kinase domains or full length constructs; made in house
T6 sequence (P35968 20-1356, species assumed): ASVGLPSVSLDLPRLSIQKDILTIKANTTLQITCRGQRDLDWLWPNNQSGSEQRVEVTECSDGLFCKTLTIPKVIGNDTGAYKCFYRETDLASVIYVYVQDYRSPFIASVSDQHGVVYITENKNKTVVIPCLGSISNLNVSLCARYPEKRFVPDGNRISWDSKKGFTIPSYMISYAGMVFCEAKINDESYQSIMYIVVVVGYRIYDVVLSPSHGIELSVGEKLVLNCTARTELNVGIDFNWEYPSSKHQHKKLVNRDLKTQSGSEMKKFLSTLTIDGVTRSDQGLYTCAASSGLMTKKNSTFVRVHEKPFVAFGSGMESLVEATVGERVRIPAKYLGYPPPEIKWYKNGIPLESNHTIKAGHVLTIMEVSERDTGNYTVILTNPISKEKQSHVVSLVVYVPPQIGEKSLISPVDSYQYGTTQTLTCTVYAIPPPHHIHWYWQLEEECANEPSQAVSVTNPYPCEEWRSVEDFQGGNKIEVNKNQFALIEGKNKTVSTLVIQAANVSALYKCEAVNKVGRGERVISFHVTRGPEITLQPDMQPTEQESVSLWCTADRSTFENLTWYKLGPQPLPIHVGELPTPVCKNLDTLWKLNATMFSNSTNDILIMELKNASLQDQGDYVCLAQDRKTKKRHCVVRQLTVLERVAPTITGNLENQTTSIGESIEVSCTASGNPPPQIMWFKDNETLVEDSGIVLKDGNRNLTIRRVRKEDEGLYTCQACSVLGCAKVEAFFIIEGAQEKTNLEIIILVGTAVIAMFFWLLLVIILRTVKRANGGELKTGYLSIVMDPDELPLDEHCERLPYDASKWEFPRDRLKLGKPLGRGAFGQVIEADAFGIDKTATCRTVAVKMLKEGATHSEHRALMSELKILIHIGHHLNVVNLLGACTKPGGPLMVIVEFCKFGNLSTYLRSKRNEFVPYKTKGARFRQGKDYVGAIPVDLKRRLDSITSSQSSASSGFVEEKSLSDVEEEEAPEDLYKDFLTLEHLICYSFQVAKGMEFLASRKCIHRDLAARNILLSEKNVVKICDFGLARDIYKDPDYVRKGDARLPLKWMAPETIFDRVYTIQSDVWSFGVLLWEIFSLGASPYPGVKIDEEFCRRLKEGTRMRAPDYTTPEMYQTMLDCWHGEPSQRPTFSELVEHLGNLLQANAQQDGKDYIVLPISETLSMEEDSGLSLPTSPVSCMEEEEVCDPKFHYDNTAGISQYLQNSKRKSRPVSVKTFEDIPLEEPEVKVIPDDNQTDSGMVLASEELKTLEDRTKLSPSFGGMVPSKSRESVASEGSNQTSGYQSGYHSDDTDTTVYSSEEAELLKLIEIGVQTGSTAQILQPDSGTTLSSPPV
Outline: as §1

c-Met = target: T7, c-Met (Homo sapiens, UniProt P08581); experiment: Kinase inhibition assay (33P transfer), c-Met; settings: Table 2, class symbols A-E; read-out: Met-1
T7 construct: Kinases are expressed as either kinase domains or full length constructs; made in house
T7 sequence (P08581 25-1390): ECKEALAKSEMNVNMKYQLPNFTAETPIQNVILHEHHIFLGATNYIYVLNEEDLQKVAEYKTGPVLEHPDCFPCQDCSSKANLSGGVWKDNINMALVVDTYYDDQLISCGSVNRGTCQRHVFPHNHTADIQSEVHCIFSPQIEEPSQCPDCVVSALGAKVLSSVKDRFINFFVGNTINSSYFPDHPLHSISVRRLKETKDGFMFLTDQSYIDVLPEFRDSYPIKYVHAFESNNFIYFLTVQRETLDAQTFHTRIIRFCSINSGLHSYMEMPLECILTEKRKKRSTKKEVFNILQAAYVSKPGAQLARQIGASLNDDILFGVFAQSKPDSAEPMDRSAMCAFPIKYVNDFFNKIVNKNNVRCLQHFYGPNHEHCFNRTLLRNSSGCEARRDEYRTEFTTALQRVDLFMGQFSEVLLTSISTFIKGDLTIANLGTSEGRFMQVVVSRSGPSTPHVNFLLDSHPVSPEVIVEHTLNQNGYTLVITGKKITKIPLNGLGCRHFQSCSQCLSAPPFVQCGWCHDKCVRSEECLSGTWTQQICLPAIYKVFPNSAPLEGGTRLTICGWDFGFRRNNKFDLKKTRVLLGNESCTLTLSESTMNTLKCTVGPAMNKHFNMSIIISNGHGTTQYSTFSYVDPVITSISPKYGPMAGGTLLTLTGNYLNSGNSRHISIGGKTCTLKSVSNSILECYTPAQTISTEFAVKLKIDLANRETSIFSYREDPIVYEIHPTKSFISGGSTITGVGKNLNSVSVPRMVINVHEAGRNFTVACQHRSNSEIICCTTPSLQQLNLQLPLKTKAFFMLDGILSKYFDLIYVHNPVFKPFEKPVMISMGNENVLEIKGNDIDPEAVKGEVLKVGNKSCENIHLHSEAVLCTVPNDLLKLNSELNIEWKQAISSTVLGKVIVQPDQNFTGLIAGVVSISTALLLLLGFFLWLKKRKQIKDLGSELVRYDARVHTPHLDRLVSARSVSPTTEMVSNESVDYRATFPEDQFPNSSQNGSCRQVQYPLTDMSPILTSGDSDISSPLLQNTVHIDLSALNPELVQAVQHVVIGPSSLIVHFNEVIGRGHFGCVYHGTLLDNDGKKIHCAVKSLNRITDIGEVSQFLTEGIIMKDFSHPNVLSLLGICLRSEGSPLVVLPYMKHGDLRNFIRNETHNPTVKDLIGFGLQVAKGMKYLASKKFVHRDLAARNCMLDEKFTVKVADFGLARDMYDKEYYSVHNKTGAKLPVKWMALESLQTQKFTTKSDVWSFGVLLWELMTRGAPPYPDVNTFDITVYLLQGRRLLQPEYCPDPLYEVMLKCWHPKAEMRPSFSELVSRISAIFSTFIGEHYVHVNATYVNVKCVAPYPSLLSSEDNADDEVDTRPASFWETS
Outline: as §2

AKT = target: T8, AKT (Homo sapiens, UniProt Q9Y243); experiment: Kinase inhibition assay (33P transfer), AKT; settings: Table 2, class symbols A-E; read-out: AKT3-1
T8 construct: Kinases are expressed as either kinase domains or full length constructs; made in house
T8 sequence (Q9Y243 whole entry, the tested form may be a part): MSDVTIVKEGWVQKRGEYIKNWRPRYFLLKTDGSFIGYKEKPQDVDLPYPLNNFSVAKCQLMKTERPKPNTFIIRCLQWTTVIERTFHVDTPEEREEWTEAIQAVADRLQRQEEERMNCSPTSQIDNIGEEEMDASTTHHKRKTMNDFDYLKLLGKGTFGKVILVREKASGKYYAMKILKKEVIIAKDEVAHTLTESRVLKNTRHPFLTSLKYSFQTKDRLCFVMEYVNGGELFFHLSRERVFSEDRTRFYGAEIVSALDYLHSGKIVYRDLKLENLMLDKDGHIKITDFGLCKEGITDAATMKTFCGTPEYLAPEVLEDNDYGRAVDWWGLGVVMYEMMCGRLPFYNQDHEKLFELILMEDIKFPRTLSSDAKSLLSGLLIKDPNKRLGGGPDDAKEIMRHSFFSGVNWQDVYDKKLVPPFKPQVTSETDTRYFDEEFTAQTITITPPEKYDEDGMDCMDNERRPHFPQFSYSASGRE
Outline: as §1

IGFR-1 = target: T9, IGFR-1 (Homo sapiens, UniProt P08069); experiment: Kinase inhibition assay (33P transfer), IGFR-1; settings: Table 2, class symbols A-E
T9 construct: Kinases are expressed as either kinase domains or full length constructs; made in house

PDGFRB = target: T10, PDGFRB (Homo sapiens, UniProt P09619); experiment: Kinase inhibition assay (33P transfer), PDGFRB; settings: read-out: PDGFRB-1
T10 construct: Kinases are expressed as either kinase domains or full length constructs; made in house
T10 sequence (P09619 33-1106, species assumed): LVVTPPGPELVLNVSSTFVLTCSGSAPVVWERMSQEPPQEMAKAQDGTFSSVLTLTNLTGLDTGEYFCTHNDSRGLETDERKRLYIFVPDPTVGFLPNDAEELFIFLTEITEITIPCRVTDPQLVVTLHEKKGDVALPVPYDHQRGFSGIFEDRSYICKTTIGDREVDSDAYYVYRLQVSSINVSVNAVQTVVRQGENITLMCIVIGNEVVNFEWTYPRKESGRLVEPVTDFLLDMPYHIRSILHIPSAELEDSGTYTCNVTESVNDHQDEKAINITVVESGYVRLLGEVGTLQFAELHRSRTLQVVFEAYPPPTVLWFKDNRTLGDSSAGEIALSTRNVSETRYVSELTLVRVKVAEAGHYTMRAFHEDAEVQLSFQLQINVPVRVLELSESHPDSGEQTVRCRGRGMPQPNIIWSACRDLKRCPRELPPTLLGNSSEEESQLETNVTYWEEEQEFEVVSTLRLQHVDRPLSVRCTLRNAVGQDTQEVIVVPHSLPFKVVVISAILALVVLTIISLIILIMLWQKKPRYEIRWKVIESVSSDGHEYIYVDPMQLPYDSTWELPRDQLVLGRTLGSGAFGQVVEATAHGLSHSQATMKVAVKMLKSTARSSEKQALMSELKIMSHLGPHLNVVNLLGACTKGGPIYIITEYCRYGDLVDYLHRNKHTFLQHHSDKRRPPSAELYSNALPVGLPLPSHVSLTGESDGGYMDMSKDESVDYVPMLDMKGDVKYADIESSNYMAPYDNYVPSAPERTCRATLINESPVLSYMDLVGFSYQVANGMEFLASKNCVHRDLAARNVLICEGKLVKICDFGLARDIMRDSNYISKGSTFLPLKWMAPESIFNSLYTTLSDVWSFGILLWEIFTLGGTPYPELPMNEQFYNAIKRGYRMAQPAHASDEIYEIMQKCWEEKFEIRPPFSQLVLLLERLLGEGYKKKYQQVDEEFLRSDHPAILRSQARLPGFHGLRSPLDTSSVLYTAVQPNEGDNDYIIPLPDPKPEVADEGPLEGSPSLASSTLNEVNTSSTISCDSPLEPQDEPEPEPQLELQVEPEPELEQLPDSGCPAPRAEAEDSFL

T1 sequence (P06239 whole entry, species assumed, the tested form may be a part): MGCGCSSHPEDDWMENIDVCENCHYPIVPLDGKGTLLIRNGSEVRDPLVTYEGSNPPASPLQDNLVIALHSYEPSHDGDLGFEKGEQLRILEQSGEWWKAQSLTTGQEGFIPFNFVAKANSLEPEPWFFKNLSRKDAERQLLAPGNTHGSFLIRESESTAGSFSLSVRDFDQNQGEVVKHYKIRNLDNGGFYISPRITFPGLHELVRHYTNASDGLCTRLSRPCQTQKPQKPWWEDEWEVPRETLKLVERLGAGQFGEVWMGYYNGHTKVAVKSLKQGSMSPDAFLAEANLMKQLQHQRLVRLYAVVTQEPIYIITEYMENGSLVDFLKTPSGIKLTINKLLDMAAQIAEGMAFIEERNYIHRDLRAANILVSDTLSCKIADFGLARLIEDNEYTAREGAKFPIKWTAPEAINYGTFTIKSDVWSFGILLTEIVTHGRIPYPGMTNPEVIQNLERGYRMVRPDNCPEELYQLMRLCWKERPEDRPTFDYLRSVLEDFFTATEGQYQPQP

SMILES | IC50 (Lck) [µM] | IC50 (Zap-70) [µM] | IC50 (Itk) [µM] | IC50 (EGFR) [µM] | IC50 (ErbB2) [µM] | IC50 (Kdr) [µM] | IC50 (c-Met) [µM] | IC50 (AKT) [µM] | IC50 (IGFR-1) [µM] | IC50 (PDGFRB) [µM]
COC(=O)c1ccc(-c2cc(Nc3ncnc(NCCCO)n3)[nH]n2)cc1 [Compound 818] | > 12.2 | > 12.2 | > 12.2 | > 12.2 | > 12.2 | > 12.2 | > 12.2 | > 12.2 | > 12.2 | 1.08 to 6.5
COC(=O)c1ccc(-c2cc(Nc3ncnc(NCCNC(C)=O)n3)[nH]n2)cc1 [Compound 819] | > 11.4 | > 11.4 | > 11.4 | > 11.4 | > 11.4 | > 11.4 | > 11.4 | > 11.4 | > 11.4 | 1.01 to 6.05
COC(=O)c1ccc(-c2cc(Nc3ncnc(NCCN4CCNC4=O)n3)[nH]n2)cc1 [Compound 820] | > 10.6 | > 10.6 | 8.27 to 10.6 | > 10.6 | > 10.6 | > 10.6 | > 10.6 | > 10.6 | 8.27 to 10.6 | > 10.6
COc1ccc(CNc2ncnc(Nc3cc(-c4ccco4)[nH]n3)n2)cc1OC [Compound 822] | > 11.4 | 6.1 to 8.9 | 1.02 to 6.1 | 1.02 to 6.1 | 6.1 to 8.9 | 8.9 to 11.4 | 6.1 to 8.9 | > 11.4 | 1.02 to 6.1 | 1.02 to 6.1
COc1cc(Nc2ncnc(-c3cccnc3Nc3cccc(C#N)c3)n2)cc(OC)c1OC [Compound 828] | > 9.88 | > 9.88 | > 9.88 | > 9.88 | > 9.88 | > 9.88 | > 9.88 | > 9.88 | > 9.88 | > 9.88
COc1cccc(Nc2ncccc2-c2ncnc(Nc3cc(OC)c(OC)c(OC)c3)n2)c1 [Compound 829] | > 9.77 | > 9.77 | > 9.77 | 7.6 to 9.77 | 0.869 to 5.21 | < 0.869 | > 9.77 | > 9.77 | > 9.77 | 0.869 to 5.21
COc1cc(Nc2ncnc(-c3cccnc3Nc3ccc4c(c3)CCC4)n2)cc(OC)c1OC [Compound 830] | > 9.56 | > 9.56 | > 9.56 | > 9.56 | > 9.56 | 0.85 to 5.1 | 0.85 to 5.1 | > 9.56 | > 9.56 | > 9.56
COc1cc(Nc2ncnc(-c3cccnc3Nc3ccc(C(C)=O)cc3)n2)cc(OC)c1OC [Compound 832] | > 9.52 | > 9.52 | > 9.52 | > 9.52 | > 9.52 | 0.847 to 5.08 | 0.847 to 5.08 | > 9.52 | > 9.52 | > 9.52

Second part, the compound after the results:

IC50 (Lck) [µM] | IC50 (Zap-70) [µM] | IC50 (Itk) [µM] | IC50 (EGFR) [µM] | IC50 (ErbB2) [µM] | IC50 (Kdr) [µM] | IC50 (c-Met) [µM] | IC50 (AKT) [µM] | IC50 (IGFR-1) [µM] | IC50 (PDGFRB) [µM] | SMILES
0.958 to 5.75 | 0.958 to 5.75 | 0.958 to 5.75 | 0.958 to 5.75 | 0.958 to 5.75 | 0.958 to 5.75 | 0.958 to 5.75 | 5.75 to 8.39 | 0.958 to 5.75 | 0.958 to 5.75 | COc1cc(Nc2ncnc(Nc3cc(-c4ccco4)[nH]n3)n2)cc(C(F)(F)F)c1 [Compound 821]
8.59 to 11 | 8.59 to 11 | 0.982 to 5.89 | > 11 | 5.89 to 8.59 | 0.982 to 5.89 | 0.982 to 5.89 | 0.982 to 5.89 | 5.89 to 8.59 | 0.982 to 5.89 | COc1ccc(CCNc2ncnc(Nc3cc(-c4ccco4)[nH]n3)n2)cc1OC [Compound 823]
1.04 to 6.21 | 1.04 to 6.21 | < 1.04 | < 1.04 | < 1.04 | < 1.04 | < 1.04 | < 1.04 | < 1.04 | < 1.04 | c1cc(Nc2ncnc(Nc3cc(-c4ccco4)[nH]n3)n2)cc(-c2cnco2)c1 [Compound 824]
8.76 to 11.3 | 6.01 to 8.76 | 1 to 6.01 | < 1 | 1 to 6.01 | < 1 | 1 to 6.01 | 1 to 6.01 | 1 to 6.01 | 1 to 6.01 | O=S(=O)(O)c1cccc(Nc2ncnc(Nc3cc(-c4ccco4)[nH]n3)n2)c1 [Compound 825]
1.06 to 6.38 | > 12 | 1.06 to 6.38 | < 1.06 | 1.06 to 6.38 | < 1.06 | 1.06 to 6.38 | > 12 | 1.06 to 6.38 | 1.06 to 6.38 | CNC(=O)c1cccc(Nc2ncnc(Nc3cc(-c4ccco4)[nH]n3)n2)c1 [Compound 826]
0.954 to 5.72 | 0.954 to 5.72 | 0.954 to 5.72 | < 0.954 | < 0.954 | 0.954 to 5.72 | 0.954 to 5.72 | 8.35 to 10.7 | 0.954 to 5.72 | 0.954 to 5.72 | FC(F)(F)Sc1cccc(Nc2ncnc(Nc3cc(-c4ccco4)[nH]n3)n2)c1 [Compound 827]
> 9.52 | > 9.52 | > 9.52 | > 9.52 | > 9.52 | > 9.52 | 5.08 to 7.41 | > 9.52 | > 9.52 | < 0.847 | COc1cc(Nc2ncnc(-c3cccnc3Nc3cccc(C(C)=O)c3)n2)cc(OC)c1OC [Compound 831]
< 0.9 | > 10.1 | > 10.1 | > 10.1 | > 10.1 | < 0.9 | > 10.1 | > 10.1 | > 10.1 | < 0.9 | COc1cc(Nc2ncnc(-c3cccnc3Nc3ccccc3C)n2)cc(OC)c1OC [Compound 833]
> 9.4 | > 9.4 | > 9.4 | > 9.4 | > 9.4 | 0.835 to 5.01 | > 9.4 | > 9.4 | > 9.4 | < 0.835 | COc1cc(Nc2ncnc(-c3cccnc3Nc3ccc(Cl)cc3C)n2)cc(OC)c1OC [Compound 834]
> 9.03 | > 9.03 | > 9.03 | > 9.03 | > 9.03 | > 9.03 | > 9.03 | > 9.03 | > 9.03 | > 9.03 | COc1cc(Nc2ncnc(-c3cccnc3Nc3ccc(C(F)(F)F)cc3)n2)cc(OC)c1OC [Compound 835]
> 9.03 | > 9.03 | > 9.03 | > 9.03 | > 9.03 | > 9.03 | > 9.03 | > 9.03 | > 9.03 | > 9.03 | COc1cc(Nc2ncnc(-c3cccnc3Nc3cccc(C(F)(F)F)c3)n2)cc(OC)c1OC [Compound 836]
